Assay results published in patent US8153809B2, “Dihydropyridone ureas as P2X7 modulators” (Roche Palo Alto LLC, priority 2008, dated 2012).

Biological target: T1, P2X7 (UniProt Q99572)
T1 sequence (Q99572 1-595): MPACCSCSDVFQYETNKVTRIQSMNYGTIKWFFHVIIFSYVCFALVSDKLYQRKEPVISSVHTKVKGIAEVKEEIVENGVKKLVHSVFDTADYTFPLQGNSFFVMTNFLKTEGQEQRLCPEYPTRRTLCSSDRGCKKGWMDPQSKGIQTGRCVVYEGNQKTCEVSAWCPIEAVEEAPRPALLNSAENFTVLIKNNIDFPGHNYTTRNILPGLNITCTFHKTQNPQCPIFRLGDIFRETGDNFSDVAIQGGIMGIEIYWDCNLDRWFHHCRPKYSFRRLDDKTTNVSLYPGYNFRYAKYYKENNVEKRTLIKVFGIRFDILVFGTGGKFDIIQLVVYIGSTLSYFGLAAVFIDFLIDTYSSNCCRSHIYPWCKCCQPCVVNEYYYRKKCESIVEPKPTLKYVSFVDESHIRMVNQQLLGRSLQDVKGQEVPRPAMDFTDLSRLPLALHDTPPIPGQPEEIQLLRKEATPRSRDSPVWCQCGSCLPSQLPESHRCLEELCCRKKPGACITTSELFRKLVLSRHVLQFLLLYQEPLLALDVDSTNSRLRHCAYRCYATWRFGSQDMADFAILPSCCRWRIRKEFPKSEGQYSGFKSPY
Assay: pIC50 values for P2X7 (Table 1)
Format: cell-based
How it was run: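 Fluo-3-loaded 1321N1 cells expressing human P2X7 or HEK293 cells expressing rat P2X7, preincubated 20 min at room temperature with antagonist in HBSS/Hepes/probenecid buffer with 2 mM CaCl2. BzATP agonist at 100 μM final (human) or 5 μM final (rat); fluorescence read 5 min, peak normalized to 5 μM ionomycin response.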

COC(=O)c1cccc(NC(=O)N2C=CC(=O)CC2c2ccc(F)cc2)c1C (stereo not shown) [Compound 66, 3-{[2-(4-Fluoro-phenyl)-4-oxo-3,4-dihydro-2H-pyridine-1-carbonyl]-amino}-2-methyl benzoic acid methyl ester] gave a pIC50 of 6.8.
COc1cccc(NC(=O)N2C=CC(=O)CC2c2ccc(F)cc2)c1 (stereo not shown) [Compound 67, 2-(4-Fluoro-phenyl)-4-oxo-3,4-dihydro-2H-pyridine-1-carboxylic acid (3-methoxy-phenyl)-amide] gave a pIC50 of 6.31.
COc1ccc(NC(=O)N2C=CC(=O)CC2c2ccc(F)cc2)c(OC)c1 (stereo not shown) [Compound 69, 2-(4-Fluoro-phenyl)-4-oxo-3,4-dihydro-2H-pyridine-1-carboxylic acid (2,4-dimethoxy-phenyl)-amide] showed a pIC50 of 6.07.
In the case of COc1cc(NC(=O)N2C=CC(=O)C[C@H]2c2cccc(F)c2)ccc1C [Compound 70, (S)-2-(3-Fluoro-phenyl)-4-oxo-3,4-dihydro-2H-pyridine-1-carboxylic acid (3-methoxy-4-methyl-phenyl)-amide], the pIC50 is reported as 6.84.
Compound COc1cc(NC(=O)N2C=CC(=O)C[C@H]2c2ccc(F)cc2)ccc1Cl [Compound 71, (S)-2-(4-Fluoro-phenyl)-4-oxo-3,4-dihydro-2H-pyridine-1-carboxylic acid (4-chloro-3-methoxy-phenyl)-amide] has a pIC50 of 6.245.
COc1cc(NC(=O)N2C=CC(=O)C[C@H]2c2cccc(F)c2)ccc1Cl [Compound 72, (S)-2-(3-Fluoro-phenyl)-4-oxo-3,4-dihydro-2H-pyridine-1-carboxylic acid (4-chloro-3-methoxy-phenyl)-amide] gave a pIC50 of 6.295.
COc1cc(NC(=O)N2C=CC(=O)C[C@H]2c2cccc(F)c2)ccc1F [Compound 73, (S)-2-(3-Fluoro-phenyl)-4-oxo-3,4-dihydro-2H-pyridine-1-carboxylic acid (4-fluoro-3-methoxy-phenyl)-amide] was tested, and the pIC50 was 6.83.
In the case of Cc1cc2ncccc2cc1NC(=O)N1C=CC(=O)C[C@H]1c1ccc(F)cc1 [Compound 74, (S)-2-(4-Fluoro-phenyl)-4-oxo-3,4-dihydro-2H-pyridine-1-carboxylic acid (7-methyl-quinolin-6-yl)-amide], the pIC50 is reported as 7.35.
With COc1cc(Br)c(CNC(=O)N2C=CC(=O)CC2c2ccc(F)cc2)cc1OC (stereo not shown) [Compound 75, 2-(4-Fluoro-phenyl)-4-oxo-3,4-dihydro-2H-pyridine-1-carboxylic acid 2-bromo-4,5-dimethoxy-benzylamide] the pIC50 was 5.075.
Compound COc1cc(NC(=O)N2C=CC(=O)C[C@H]2c2ccc(F)cc2)ccc1F [Compound 76, (S)-2-(4-Fluoro-phenyl)-4-oxo-3,4-dihydro-2H-pyridine-1-carboxylic acid (4-fluoro-3-methoxy-phenyl)-amide] has a pIC50 of 6.76.
In the case of Cc1cc(Br)c(NC(=O)N2C=CC(=O)C[C@H]2c2ccc(F)cc2)cc1C(=O)OC(C)(C)C [Compound 77, 4-Bromo-5-{[(S)-2-(4-fluoro-phenyl)-4-oxo-3,4-dihydro-2H-pyridine-1-carbonyl]amino}-2-methyl-benzoic acid tert-butyl ester], the pIC50 is reported as 6.67.
COc1cc(NC(=O)N2C=CC(=O)C[C@H]2c2cc(F)cc(F)c2)c(Br)cc1C [Compound 78, (S)-2-(3,5-Difluoro-phenyl)-4-oxo-3,4-dihydro-2H-pyridine-1-carboxylic acid (2-bromo-5-methoxy-4-methyl-phenyl)-amide] gave a pIC50 of 7.675.
COc1cc(NC(=O)N2C=CC(=O)C[C@@H]2c2cc(F)cc(F)c2)c(Br)cc1C [Compound 79, (R)-2-(3,5-Difluoro-phenyl)-4-oxo-3,4-dihydro-2H-pyridine-1-carboxylic acid (2-bromo-5-methoxy-4-methyl-phenyl)-amide] was tested, and the pIC50 was 5.475.
Work on COc1cc(NC(=O)N2C=CC(=O)CC2c2ccc(F)cc2)cc(OC)c1OC (stereo not shown) [Compound 80, 2-(4-Fluoro-phenyl)-4-oxo-3,4-dihydro-2H-pyridine-1-carboxylic acid (3,4,5-trimethoxy-phenyl)-amide] yielded a pIC50 of 5.
With COc1cc(NC(=O)N2C=CC(=O)C[C@H]2c2ccc(F)c(F)c2)c(Br)cc1C [Compound 81, (S)-2-(3,4-Difluoro-phenyl)-4-oxo-3,4-dihydro-2H-pyridine-1-carboxylic acid (2-bromo-5-methoxy-4-methyl-phenyl)-amide] the pIC50 was 7.54.
COc1cc(NC(=O)N2C=CC(=O)C[C@@H]2c2ccc(F)c(F)c2)c(Br)cc1C [Compound 82, (R)-2-(3,4-Difluoro-phenyl)-4-oxo-3,4-dihydro-2H-pyridine-1-carboxylic acid (2-bromo-5-methoxy-4-methyl-phenyl)-amide] showed a pIC50 of 5.31.
C[C@H](O)c1cc(NC(=O)N2C=CC(=O)C[C@H]2c2ccc(F)cc2)c(Br)cc1Cl [Compound 83, (S)-2-(4-Fluoro-phenyl)-4-oxo-3,4-dihydro-2H-pyridine-1-carboxylic acid [2-bromo-4-chloro-5-((S)-1-hydroxy-ethyl)-phenyl]-amide] was tested, and the pIC50 was 7.56.
C[C@@H](O)c1cc(NC(=O)N2C=CC(=O)C[C@H]2c2ccc(F)cc2)c(Br)cc1Cl [Compound 84, (S)-2-(4-Fluoro-phenyl)-4-oxo-3,4-dihydro-2H-pyridine-1-carboxylic acid [2-bromo-4-chloro-5-((R)-1-hydroxy-ethyl)-phenyl]-amide] was tested, and the pIC50 was 6.67.
In the case of O=C1C=CN(C(=O)Nc2c(F)cc(F)cc2Br)C(c2ccc(F)cc2)C1 (stereo not shown) [Compound 85, 2-(4-Fluoro-phenyl)-4-oxo-3,4-dihydro-2H-pyridine-1-carboxylic acid (2-bromo-4,6-difluoro-phenyl)-amide], the pIC50 is reported as 5.
O=C1C=CN(C(=O)Nc2ccsc2Br)C(c2ccc(F)cc2)C1 (stereo not shown) [Compound 86, 2-(4-Fluoro-phenyl)-4-oxo-3,4-dihydro-2H-pyridine-1-carboxylic acid (2-bromo-thiophen-3-yl)-amide] was tested, and the pIC50 was 6.725.
For CCc1cc(OC)c(OC)cc1NC(=O)N1C=CC(=O)C[C@H]1c1ccc(F)cc1 [Compound 87, (S)-2-(4-Fluoro-phenyl)-4-oxo-3,4-dihydro-2H-pyridine-1-carboxylic acid (2-ethyl-4,5-dimethoxy-phenyl)-amide], the pIC50 was 8.36.
Work on COc1ccc(NC(=O)N2C=CC(=O)C[C@H]2c2cccc(F)c2)cc1OC [Compound 88, (S)-2-(3-Fluoro-phenyl)-4-oxo-3,4-dihydro-2H-pyridine-1-carboxylic acid (3,4-dimethoxy-phenyl)-amide] yielded a pIC50 of 6.32.
Compound COc1ccc(NC(=O)N2C=CC(=O)C[C@H]2c2ccc(F)cc2)c(Br)c1 [Compound 89, (S)-2-(4-Fluoro-phenyl)-4-oxo-3,4-dihydro-2H-pyridine-1-carboxylic acid (2-bromo-4-methoxy-phenyl)-amide] has a pIC50 of 7.45.
For O=C1C=CN(C(=O)Nc2ccc3cc[nH]c3c2)C(c2ccc(F)cc2)C1 (stereo not shown) [Compound 90, 2-(4-Fluoro-phenyl)-4-oxo-3,4-dihydro-2H-pyridine-1-carboxylic acid (1H-indol-6-yl)-amide], the pIC50 was 6.615.
Cc1cc2cc(NC(=O)N3C=CC(=O)CC3c3ccc(F)cc3)ccc2o1 (stereo not shown) [Compound 91, 2-(4-Fluoro-phenyl)-4-oxo-3,4-dihydro-2H-pyridine-1-carboxylic acid (2-methyl-benzofuran-5-yl)-amide] was tested, and the pIC50 was 6.315.
For Cc1cc(Cl)c(OCCO)cc1NC(=O)N1C=CC(=O)C[C@H]1c1ccc(F)cc1 [Compound 92, (S)-2-(4-Fluoro-phenyl)-4-oxo-3,4-dihydro-2H-pyridine-1-carboxylic acid [4-chloro-5-(2-hydroxy-ethoxy)-2-methyl-phenyl]-amide], the pIC50 was 8.023.
In the case of COC(=O)c1cccc(NC(=O)N2C=CC(=O)C[C@H]2c2ccc(F)cc2)c1C [Compound 93, 3-{[(S)-2-(4-Fluoro-phenyl)-4-oxo-3,4-dihydro-2H-pyridine-1-carbonyl]-amino}-2-methyl-benzoic acid methyl ester], the pIC50 is reported as 7.44.
COC(=O)c1cccc(NC(=O)N2C=CC(=O)C[C@@H]2c2ccc(F)cc2)c1C [Compound 94, 3-{[(R)-2-(4-Fluoro-phenyl)-4-oxo-3,4-dihydro-2H-pyridine-1-carbonyl]-amino}-2-methyl-benzoic acid methyl ester] showed a pIC50 of 6.13.
Compound Cc1ccc(C)c(NC(=O)N2C=CC(=O)C[C@H]2c2ccc(F)cc2)c1 [Compound 95, (S)-2-(4-Fluoro-phenyl)-4-oxo-3,4-dihydro-2H-pyridine-1-carboxylic acid (2,5-dimethyl-phenyl)-amide] has a pIC50 of 7.9775.
Compound COc1ccc(Br)c(NC(=O)N2C=CC(=O)C[C@H]2c2ccc(F)cc2)c1 [Compound 96, (S)-2-(4-Fluoro-phenyl)-4-oxo-3,4-dihydro-2H-pyridine-1-carboxylic acid (2-bromo-5-methoxy-phenyl)-amide] has a pIC50 of 7.875.
For Cc1cccc(NC(=O)N2C=CC(=O)C[C@H]2c2ccc(F)cc2)c1C [Compound 97, (S)-2-(4-Fluoro-phenyl)-4-oxo-3,4-dihydro-2H-pyridine-1-carboxylic acid (2,3-dimethyl-phenyl)-amide], the pIC50 was 7.74.
